One series concerns Colo205. Description: Combination with genotoxic agents, cell viability (Mixtures Blend). Type of series: cell-based. The settings on record: with Cisplatin and 5-FU. As to the method: (§1) The cell-based experiments and assays were performed with either molecule but not always with both. Compounds (1) and (2) were generally very similar in those assays and experiments. Analysis of the combination experiments was performed using two methods: the Bliss Additivity model and the Mixtures Blend method to determine the degree of synergy, additivity, or antagonism. In the Bliss method, a matrix of Bliss scores was generated for each cell line and treatment, and a sum of the Bliss values over the range of combination concentrations tested was calculated. […] Larger average Bliss values indicate greater confidence in reporting synergy, and smaller scores indicate greater confidence in reporting antagonism. In the Mixtures Blend method combinants were added in a range of optimal ratios using design of experiment (DOE) software (DX-8 from STAT-EASE); the cells were irradiated with 2 Gy as required. Synergy was determined using statistical analysis of the data (ANOVA) to indicate linear (additivity) or statistically significant (p<0.1) non-linear (antagonism or synergy) mixes of the combinants. The following SOC agents were tested in double combinations with Compound (1): etoposide (a topoisomerase inhibitor that induces DSBs), cisplatin (DNA cross-linker), carboplatin (DNA cross-linker), fluorouracil (5-FU, antimetabolite that inhibits thymidylate synthase), paclitaxel (mitotic inhibitor that binds to tubulin), cetuximab (EGFR monoclonal antibody), and radiation. […] These findings were confirmed using the Bliss Additivity model (Table 21). […] While there is not total agreement in the various lines tested, (as detailed in the other sections) the majority agree and the conclusions arrived at are common to each. […] The cancer cell lines in Table 19 indicate: ESO26-gastroesophageal junction cancer, OE19-gastroesophageal junction cancer, […]549-lung cancer, colo205-colon cancer, H460-lung cancer, H2009-lung cancer, FaDu-pharynx cancer, Miapaca2-pancreatic cancer, HFL1-human fetal lung fibroblast.

Another series relates to OE19. The description is as above. Type of series: cell-based. As to the method: as §1
The test system of another series is DMS-53. Described as above. The settings on record: with Cisplatin and Etoposide. Type of series: cell-based. The procedure:
as §1

Series [1] is described as follows: Blood exposure in ST-02-0004 study. Type of series: in vivo. The procedure: The anti-tumor activity of Compound (2) in combination with focused-beam IR and the standard of care agents, paclitaxel and carboplatin, was also evaluated in the ST 02 0004 model. Treatment with paclitaxel, carboplatin, and IR was administered once per week for three weeks alone or in combination with Compound (2). […] Further, the 50 and 25 mg/kg Compound (2), paclitaxel/carboplatin, IR combination groups were statistically different (P<0.05) from the paclitaxel/carboplatin, paclitaxel/carboplatin/50 mg/kg Compound (2), and paclitaxel/carboplatin/IR groups. Compound (2) blood exposures were 9.3 and 27 μg*h/mL for the 25 and 50 mg/kg Compound (2) bid groups, respectively.

The test system of another series is MDA-MB-436. Description: Doxorubicin combination in triple negative breast cancer cells. Type of series: cell-based. The note with it: Compound (2) with doxorubicin, BRCA mutant. The procedure:
(§2) The cell-based experiments and assays were performed with either molecule but not always with both. Compounds (1) and (2) were generally very similar in those assays and experiments. Analysis of the combination experiments was performed using two methods: the Bliss Additivity model and the Mixtures Blend method to determine the degree of synergy, additivity, or antagonism. In the Bliss method, a matrix of Bliss scores was generated for each cell line and treatment, and a sum of the Bliss values over the range of combination concentrations tested was calculated. […] Larger average Bliss values indicate greater confidence in reporting synergy, and smaller scores indicate greater confidence in reporting antagonism. In the Mixtures Blend method combinants were added in a range of optimal ratios using design of experiment (DOE) software (DX-8 from STAT-EASE); the cells were irradiated with 2 Gy as required. Synergy was determined using statistical analysis of the data (ANOVA) to indicate linear (additivity) or statistically significant (p<0.1) non-linear (antagonism or synergy) mixes of the combinants.

The subject of another series is HCC-1395. The series is described as above. Type of series: cell-based. The note with it: Compound (2) with doxorubicin; plating density 5000; BRCA mutant. As to the method:
as §2

A further series deals with HCC-1937. The series is described as above. Type of series: cell-based. The note with it: Compound (2) with doxorubicin, BRCA mutant. As to the method: as §2
A further series deals with A549. The series is described as follows: Combination with etoposide, viability (Bliss analysis). Type of series: cell-based. The settings on record: Compound (2) with etoposide; n = 1. As to the method: as §2
In a further series the test system is ESO26. The description is as above. Type of series: cell-based. The note with it: Compound (2) with etoposide; n = 3. As to the method:
as §2

Series [2] concerns panel of 60 cancer cell lines. The series is described as follows: Double combinations in 60 cancer cell line panel (ATPLite, Bliss). Type of series: cell-based. The note with it: 144 hours. As to the method:
as §2, with “combinants. Compound (2) was tested against a panel of 60 cancer cell lines (see Table 16) alone and in combination with a panel of cytotoxic and non-cytotoxic SOC agents. The 60 cancer cell lines represent lines derived from breast cancer, prostate cancer, lung cancer, acute myeloid leukemia (AML), myeloma and other cancers. Cells were removed from liquid nitrogen storage, thawed and expanded in appropriate growth media. Once expanded, cells were seeded in 384-well tissue culture treated plates at 500 cells per well. […] At the end of either 0 hours or 144 hours, cell status was analyzed using ATPLite (Perkin Elmer) to assess the biological response of cells to drug combinations.” for “combinants.”
In general terms: In ATP-based viability assays light output follows the ATP content of the culture.

Entries after “also recorded” stand apart in the source; their conditions may differ.

In the case of `CNC(=O)c1ccnc2c([C@H](C)CNc3cc(-c4cnc(C)nc4)ncn3)cccc12` [Compound (1), (S)-N-methyl-8-(1-((2′-methyl-[4,5′-bipyrimidin]-6-yl)amino)propan-2-yl)quinoline-4-carboxamide], the “Synergy or Antagonism, No Radiation” value in the series with Colo205 is recorded as “synergistic; also recorded: Synergy”; with OE19 (with 5-FU), “Additivity”; with OE19 (with Carboplatin), “Antagonism”; in the series with OE19 (with Cisplatin and Paclitaxel), “Mix”; with DMS-53, “Strong Synergy”. In addition, the “Synergy or Antagonism, Plus Radiation (2 Gy)” value with Colo205 is recorded as “Synergy, Plus”; in the series with OE19 (with 5-FU), “Synergy*, Plus”; with OE19 (with Carboplatin), “Synergy*, Plus”; with OE19 (with Cisplatin and Paclitaxel), “Synergy, Plus”.

On to `[2H]c1nc(C)nc([2H])c1-c1cc(NC[C@@H](C)c2cccc3c(C(=O)NC)ccnc23)ncn1` [Compound (2), (S)-N-methyl-8-(1-((2′-methyl-4′,6′-dideutero-[4,5′-bipyrimidin]-6-yl)amino)propan-2-yl)quinoline-4-carboxamide], for which the blood exposure in [1] (25 mg/kg Compound (2) bid group) amounted to 9300 ng·h/mL; in [1] (50 mg/kg Compound (2) bid group), 27000 ng·h/mL. Moreover, the “Average Bliss score” value in the series on MDA-MB-436 (plating density 5000) is reported as 14.5; with MDA-MB-436 (plating density 20000), 14.4; in the series on HCC-1395, 11.1; with HCC-1937 (plating density 5000), 16.6; in the series on HCC-1937 (plating density 20000), 15.6; with A549, 27.3 (n = 1). The “Average Bliss score” value in the series with ESO26 was 43.2 ± 6.5 (n = 3). Besides, the “Bliss analysis, combination effect” value in [2] (in combination with bleomycin), in series [2] (in combination with doxorubicin) and in [2] (in combination with etoposide) was “strong synergy (greater than 10 indicates strong synergy)” in each case.

The values are drawn from patent publication US10039761B2, “Co-crystals and pharmaceutical compositions comprising the same” (Vertex Pharmaceuticals Incorporated, priority 2013, dated 2018).
